Legend:
[1] = target: PHD-bromodomain of TRIM24 (Homo sapiens (Human), UniProt O15164); assay: TRIM24 binding alpha assay; settings: Alpha Assay binding to TRIM24; compounds 50 μM to 0.002 μM
Method: The alpha TRIM24 binding assay is used to assess the binding of the compounds of the application. Compounds are added at various concentrations as well as a vehicle control. Compounds that bind to TRIM24 compete away the interaction between the PHD-bromodomain of TRIM24 bound to the donor bead, and the H3K23ac histone peptide bound to the acceptor bead, which causes a decrease in signal. IC50 values are calculated.
The alpha assay was used to assess the binding of the compounds of the application to TRIM24 at various concentrations. All compounds were added at concentrations from 50 μM to 0.002 μM. Compounds that bind to TRIM24 compete with the PHD-bromodomain of TRIM24 in interacting with the donor bead, and the H3K23ac histone peptide bound to the acceptor bead, which causes a decrease in signal. IC50 values were calculated by using Graphpad PRISM's log(inhibitor) vs. response—variable slope (four parameters).

TRIM24 = TRIM24 (Homo sapiens (Human), UniProt O15164); assay: Destabilization of TRIM24 over time in MCF7 cells (immunoblot); assay type: cell-based
Sequence of TRIM24 (O15164 whole entry): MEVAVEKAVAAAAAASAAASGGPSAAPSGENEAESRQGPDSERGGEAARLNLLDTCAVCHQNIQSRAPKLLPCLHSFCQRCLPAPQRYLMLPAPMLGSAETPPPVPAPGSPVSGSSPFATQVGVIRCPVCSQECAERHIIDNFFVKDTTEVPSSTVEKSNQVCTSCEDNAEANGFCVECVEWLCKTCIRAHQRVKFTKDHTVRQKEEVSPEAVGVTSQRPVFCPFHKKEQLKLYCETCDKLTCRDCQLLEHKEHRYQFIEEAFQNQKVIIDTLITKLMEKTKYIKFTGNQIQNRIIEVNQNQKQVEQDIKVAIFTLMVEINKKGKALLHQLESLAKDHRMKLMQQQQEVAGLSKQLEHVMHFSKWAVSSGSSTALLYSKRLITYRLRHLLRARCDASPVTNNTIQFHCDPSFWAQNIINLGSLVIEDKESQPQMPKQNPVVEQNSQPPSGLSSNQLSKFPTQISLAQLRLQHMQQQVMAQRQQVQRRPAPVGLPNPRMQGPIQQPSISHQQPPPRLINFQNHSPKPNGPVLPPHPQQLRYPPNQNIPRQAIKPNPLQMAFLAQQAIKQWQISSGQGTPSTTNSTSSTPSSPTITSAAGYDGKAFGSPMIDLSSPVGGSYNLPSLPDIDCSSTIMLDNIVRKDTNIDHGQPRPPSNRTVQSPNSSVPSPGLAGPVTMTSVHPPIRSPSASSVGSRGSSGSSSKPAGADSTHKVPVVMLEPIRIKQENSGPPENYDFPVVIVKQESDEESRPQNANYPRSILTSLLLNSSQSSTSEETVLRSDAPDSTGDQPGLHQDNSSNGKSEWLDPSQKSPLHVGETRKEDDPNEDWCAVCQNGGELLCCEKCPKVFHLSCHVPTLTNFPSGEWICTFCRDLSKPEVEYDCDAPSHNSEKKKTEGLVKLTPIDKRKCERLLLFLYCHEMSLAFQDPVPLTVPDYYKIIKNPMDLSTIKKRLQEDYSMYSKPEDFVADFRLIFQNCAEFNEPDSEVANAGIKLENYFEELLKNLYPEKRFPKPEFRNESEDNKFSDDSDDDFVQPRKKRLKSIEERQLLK
Method: Wild-type or cereblon null 293T cells, or MCF7 cells, were treated with compounds of the application. The cells were treated for 4 hours or 18 hours with representative compounds at a final concentration of 10 μM, 5 μM, or 0.5 μM, or with a vehicle control. Cells were harvested and lysed using RIPA buffer with Halt protease inhibitors and 0.1% benzonase on ice for 15 minutes. The amount of total protein was quantified using the BCA assay. Primary antibodies used were TRIM24 (Cell Signaling Technology) as well as actin (Santa Cruz). Blots were imaged using secondary antibodies (LI-COR) on the OdysseyCLxImager. Band intensities were quantified using the LI-COR software. TRIM24 signal was normalized to the actin loading control. The signal intensity of TRIM24 from cells treated with DMSO was set to 1, and all other treatment conditions were normalized to the DMSO condition per immunoblot to determine the level of TRIM24, which was expressed as a ratio to the TRIM24 level in the DMSO treated cells.
In addition. MCF7 cells were treated for 24, 48, and 72 hours with representative compounds of the application at 5 μM.

Sequence of PHD-bromodomain of TRIM24 (O15164 824-1006): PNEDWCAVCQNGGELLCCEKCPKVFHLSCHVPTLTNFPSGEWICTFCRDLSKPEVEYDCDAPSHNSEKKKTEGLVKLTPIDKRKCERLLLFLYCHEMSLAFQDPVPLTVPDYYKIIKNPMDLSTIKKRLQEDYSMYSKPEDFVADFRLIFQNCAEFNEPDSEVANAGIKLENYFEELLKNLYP

| Compound | IC50 [1] [nM] | level of TRIM24 compared to vehicle (TRIM24; 5 μM, 24, 48 and 72 hours) | decrease in the level of TRIM24 over time (TRIM24; 5 μM, 24 h to 72 h) |
| --- | --- | --- | --- |
| CCCOc1cccc(Oc2cc3c(cc2NS(=O)(=O)c2cccc(C(=O)NCCOCCOCCOCC(=O)N[C@H](C(=O)N4C[C@H](O)C[C@H]4C(=O)NCc4ccc(-c5scnc5C)cc4)C(C)(C)C)c2)n(C)c(=O)n3C)c1 [I-B3, (2S,4R)-1-((S)-15-(tert-butyl)-1-(3-(N-(1,3-dimethyl-2-oxo-6-(3-propoxyphenoxy)-2,3-dihydro-1H-benzo[d]imidazol-5-yl)sulfamoyl)phenyl)-1,13-dioxo-5,8,11-trioxa-2,14-diazahexadecan-16-oyl)-4-hydroxy-N-(4-(4-methylthiazol-5-yl)benzyl)pyrrolidine-2-carboxamide] | 50 to 100 | significantly reduced | continued over a 24 h to 72 h period |
| CCCOc1cccc(Oc2cc3c(cc2NS(=O)(=O)c2cccc(C(=O)NCCOCCOCCOc4cc(-c5scnc5C)ccc4CNC(=O)[C@@H]4C[C@@H](O)CN4C(=O)[C@H](C(C)C)N4Cc5ccccc5C4=O)c2)n(C)c(=O)n3C)c1 [I-B1, (2S,4R)—N-(2-(2-(2-(2-(3-(N-(1,3-dimethyl-2-oxo-6-(3-propoxyphenoxy)-2,3-dihydro-1H-benzo[d]imidazol-5-yl)sulfamoyl)benzamido)ethoxy)ethoxy)ethoxy)-4-(4-methylthiazol-5-yl)benzyl)-4-hydroxy-1-((S)-3-methyl-2-(1-oxoisoindolin-2-yl)butanoyl)pyrrolidine-2-carboxamide] | 100 to 500 |  |  |
| COc1ccc(Oc2cc3c(cc2NS(=O)(=O)c2ccc(OC)c(OC)c2)n(C)c(=O)n3C)cc1 [Cmpd A, reference compound] | > 500 |  |  |
| COc1ccc(S(=O)(=O)Nc2cc3c(cc2Oc2ccc(OCC(=O)NCCCCNC(=O)COc4cccc5c4C(=O)N(C4CCC(=O)NC4=O)C5=O)cc2)n(C)c(=O)n3C)cc1OC (centres unmarked) [I-A1, 2-(4-((6-((3,4-dimethoxyphenyl)sulfonamido)-1,3-dimethyl-2-oxo-2,3-dihydro-1H-benzo[d]imidazol-5-yl)oxy)phenoxy)-N-(4-(2-((2-(2,6-dioxopiperidin-3-yl)-1,3-dioxoisoindolin-4-yl)oxy)acetamido)butyl)acetamide] | > 500 |  |  |
| CCCOc1cccc(Oc2cc3c(cc2NS(=O)(=O)c2cccc(C(=O)NCCCCNC(=O)COc4cccc5c4C(=O)N(C4CCC(=O)NC4=O)C5=O)c2)n(C)c(=O)n3C)c1 (centres unmarked) [I-A4, 3-(N-(1,3-dimethyl-2-oxo-6-(3-propoxyphenoxy)-2,3-dihydro-1H-benzo[d]imidazol-5-yl)sulfamoyl)-N-(4-(2-((2-(2,6-dioxopiperidin-3-yl)-1,3-dioxoisoindolin-4-yl)oxy)acetamido)butyl)benzamide] | 50 to 100 |  |  |
| COc1ccc(S(=O)(=O)Nc2cc3c(cc2Oc2ccc(OCC(=O)NCCCOCCOCCOCCCNC(=O)COc4cccc5c4C(=O)N(C4CCC(=O)NC4=O)C5=O)cc2)n(C)c(=O)n3C)cc1OC (centres unmarked) [I-A3, 2-(4-((6-((3,4-dimethoxyphenyl)sulfonamido)-1,3-dimethyl-2-oxo-2,3-dihydro-1H-benzo[d]imidazol-5-yl)oxy)phenoxy)-N-(1-((2-(2,6-dioxopiperidin-3-yl)-1,3-dioxoisoindolin-4-yl)oxy)-2-oxo-7,10,13-trioxa-3-azahexadecan-16-yl)acetamide] | > 500 |  |  |
